The record followed here is patent EP2132185B1, “PYRIMIDINYL-PIPERAZINES USEFUL AS DOPAMINE D3/D2 RECEPTOR LIGANDS” (Richter Gedeon Nyrt., priority 2007, dated 2008).

As usually defined, the Ki is the dissociation constant of the complex between target and ligand, obtained from inhibition or displacement. The term % inhibition denotes the relative decrease from the control value, in per cent.

One series addresses Alpha-1 receptor. The series can be described thus: Alpha-1 receptor binding ([3H]-prazosine, rat cortical membrane preparation). As to conditions: for Ki: rat cortical membrane preparation, [3H]-prazosine, read-out: α-1 Ki.
Series [1] concerns the target T1, rat recombinant D3 receptors (Rattus norvegicus, UniProt P19020).
T1 construct: purchased Perkin-Elmer 6110139; host or cells: Sf9 cells
The series can be described thus: D3 receptor binding ([3H]spiperone). The following applies: rat recombinant D3 receptors expressed in Sf9 cells.

Another series has as its target T2, D2 receptor (Rattus norvegicus, UniProt P61169).
T2 construct: on rat brain striatal membrane preparation; from tissue; host or cells: rat brain striatum membranes
Nature of the series: D2 receptor binding ([3H]spiperone, rat brain striatal membrane preparation). The following applies: for Ki: rat brain striatal membrane preparation, [3H]spiperone.

Series [2] relates to male Wistar rats. Nature of the series: Scopolamine-induced learning disturbance in the water-labyrinth. It counts as in vivo, rat. As to conditions: scopolamine 3 mg/kg ip., negative values mean further impairment. The protocol:
6. Scopolamine-Induced Learning Disturbance in the Water-Labyrinth
The learning process of rats was assessed in a 3-choice point water-labyrinth system. The number of directional turning errors was recorded in three daily trials for three experimental days. Male Wistar rats weighing 180-200 g (n=10 per groups) were treated orally with vehicle or the test compounds 1 hour before each daily session. Scopolamine (3 mg/kg ip.) as amnestic agent was injected 30 minutes prior to the first daily trial. Mean ± SE of errors committed in all the trials was calculated in each group. Percent inhibition of scopolamine-induced increase in the number of errors was calculated for each dose of the tested compound.

The subject of series [3] is male Wistar rats. The series can be described thus: Amphetamine-induced hypermotility. Format: in vivo. As to conditions: Rattus norvegicus, 1 h, oral administration one hour before d-amphetamine 0.5 mg/kg sc., read-out: Inhibition of amphetamine-induced hypermotility (ED50, mg/kg). The method, then:
4. Amphetamine-Induced Hypermotility
One hour after the oral administration of doses of the test compound or vehicle, male Wistar rats were subcutaneously treated with d-amphetamine (0.5 mg/kg, sc.) and were individually placed in activity cages for one hour. Locomotor activity was measured in a four-channel activity monitor equipped with infrared photobeams Horizontal movement was determined as the number of beam interruptions. Mean ± SE of horizontal activity data of each group was calculated. Percent inhibition of amphetamine-induced increase in locomotion was calculated for each dose of the tested compound. The ED-50 value was determined by linear regression fitted to the dose-response plot.

For series [4], the system named is male Wistar rats. Nature of the series: Catalepsy test. Format: in vivo, rat. As to conditions: for Catalepsy (MED, mg/kg): oral treatment, rats, minimum effective (cataleptic) dose.
Protocol: Thirty minutes after the oral treatment with the test compounds male Wistar rats weighing 200-220 g (n=10/group) were placed in extra-ordinary position: placing both forepaws of the rat on a 10 cm high podium. […] The frequency of cataleptic animals was determined at one, two, three, four and five hours after the treatment. Minimum effective (cataleptic) dose was defined as the dose causing catalepsy at least at two readings (i.e. either at two time points in the same animal or in two different animals at any of the time points).

T1 sequence (P19020 whole entry): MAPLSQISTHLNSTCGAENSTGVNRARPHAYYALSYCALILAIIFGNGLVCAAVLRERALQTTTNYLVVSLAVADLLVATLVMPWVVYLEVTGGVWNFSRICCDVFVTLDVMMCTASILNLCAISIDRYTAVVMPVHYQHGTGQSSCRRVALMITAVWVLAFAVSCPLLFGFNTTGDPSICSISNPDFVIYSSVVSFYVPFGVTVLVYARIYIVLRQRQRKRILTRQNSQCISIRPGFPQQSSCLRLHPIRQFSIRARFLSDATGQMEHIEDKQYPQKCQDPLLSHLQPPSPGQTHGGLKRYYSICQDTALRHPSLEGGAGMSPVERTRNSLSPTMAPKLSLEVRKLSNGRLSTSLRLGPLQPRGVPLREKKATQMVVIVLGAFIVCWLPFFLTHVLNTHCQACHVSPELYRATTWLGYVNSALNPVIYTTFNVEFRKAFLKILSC
T2 sequence (P61169 whole entry): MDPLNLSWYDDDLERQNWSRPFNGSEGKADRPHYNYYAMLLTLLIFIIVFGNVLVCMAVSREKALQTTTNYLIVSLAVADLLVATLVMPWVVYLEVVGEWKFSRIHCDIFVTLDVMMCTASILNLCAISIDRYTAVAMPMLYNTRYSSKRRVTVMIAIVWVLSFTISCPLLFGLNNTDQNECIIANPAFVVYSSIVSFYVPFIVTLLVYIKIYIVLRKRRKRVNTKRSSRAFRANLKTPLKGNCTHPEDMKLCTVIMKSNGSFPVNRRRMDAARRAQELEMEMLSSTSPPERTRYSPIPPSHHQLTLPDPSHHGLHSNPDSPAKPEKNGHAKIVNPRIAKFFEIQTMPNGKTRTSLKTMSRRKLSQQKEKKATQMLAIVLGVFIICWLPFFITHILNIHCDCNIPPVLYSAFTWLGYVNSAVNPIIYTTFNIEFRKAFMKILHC
Protocol for Alpha-1 receptor: The non-specific binding was determined in the presence of 10 µM phentolamine.
Protocol for D2 receptor: Non-specific binding was determined in the presence of 1 µM (+) butaclamol.

`CNc1nc(Cl)c(Cl)c(N2CCN(CC[C@H]3CC[C@H](NC(=O)N4CCOCC4)CC3)CC2)n1` [Compound 7, trans-morpholine-4-carboxylic acid (4-{2-[4-(5,6-dichloro-2-methylamino-pyrimidin-4-yl)-piperazin-1-yl]-ethyl}-cyclohexyl)-amide]: the Ki at Alpha-1 receptor was above 1000 nM; in series [1], 1 to 3 nM.
For the compound `CCNC(=O)N[C@H]1CC[C@H](CCN2CCN(c3nc(NC)nc(Cl)c3Cl)CC2)CC1` [Compound 10, Trans-1-(4-{2-[4-(5,6-dichloro-2-methylamino-pyrimidin-4-yl)-piperazin-1-yl]-ethyl}-cyclohexyl)-3-ethyl-urea], the Ki on Alpha-1 receptor is above 1000 nM; in series [1], below 1 nM; on D2 receptor, 5 to 15 nM. Also, the “D2 Sel. (D2/D3 selectivity, i.e., Ki for D2 receptor divided by Ki for D3 receptor)” value at D2 receptor was determined as 17.
For `CNc1nc(Cl)c(Cl)c(N2CCN(CC[C@H]3CC[C@H](NC(N)=O)CC3)CC2)n1` [Compound 2, Trans-(4-{2-[4-(5,6-dichloro-2-methylamino-pyrimidin-4-yl)-piperazin-1-yl]-ethyl}-cyclohexyl)-urea], in that order: above 1000 nM, 1 to 3 nM, 15 to 50 nM and 27.
As to `Cc1nc2n(c(=O)c1CCN1CCC(c3noc4cc(F)ccc34)CC1)CCCC2` [Risperidone, reference compound], the “α-1 Sel.” value with Alpha-1 receptor (selectivity column under α-1) worked out at 0.07. In the series on male Wistar rats [2] (Dose 0.5 mg/kg orally), the “% inhibition” value is reported as -15%. Also, in the series with male Wistar rats [3], the ED50 was 0.15 mg/kg.
For `CCC(=O)NC1CCC(CCN2CCN(c3nc(NC)nc(Cl)c3Cl)CC2)CC1` (stereo not drawn) [Compound 11, trans-N-(4-{2-[4-(5,6-dichloro-2-methylamino-pyrimidin-4-yl)-piperazin-1-yl]-ethyl}-cyclohexyl-propionamide], the Ki at Alpha-1 receptor is above 1000 nM; in series [1], below 1 nM; at D2 receptor, 5 to 15 nM. The “D2 Sel. (D2/D3 selectivity, i.e., Ki for D2 receptor divided by Ki for D3 receptor)” value at D2 receptor came to 43.
Take `CNc1nc(Cl)c(Cl)c(N2CCN(CC[C@H]3CC[C@H](NC(C)=O)CC3)CC2)n1` [Compound 1, Tran-N-(4-{2-[4-(5,6-dichloro-2-methylamino-pyrimidin-4-yl)-piperazin-1-yl]-ethyl}-cyclohexyl)-acetamide]: the “TI (therapeutic index - catalepsy MED divided by amphetamine hypermotility ED50)” value with male Wistar rats [4] came to 714. Moreover, the “Catalepsy (MED, mg/kg)” value in the series with male Wistar rats [4] is listed as 100 mg/kg. Also, on Alpha-1 receptor, the Ki was above 1000 nM. In addition, the “% inhibition” value in the series with male Wistar rats [2] (Dose 0.1 mg/kg orally) worked out at 36%; in the series with male Wistar rats [2] (Dose 0.2 mg/kg orally) it was 58%; in the series on male Wistar rats [2] (Dose 0.4 mg/kg orally), 61%; in the series with male Wistar rats [2] (Dose 0.8 mg/kg orally), 44%. In the series on male Wistar rats [3], the ED50 was found to be 0.14 mg/kg. The “D2 Sel. (D2/D3 selectivity, i.e., Ki for D2 receptor divided by Ki for D3 receptor)” value on D2 receptor is given as 22.
As for `CNc1nc(Cl)c(Cl)c(N2CCN(CCC3CCC(NC(=O)N(C)C)CC3)CC2)n1` (stereo not drawn) [Compound 8, trans-3-(4-{2-[4-(5,6-dichloro-2-methylamino-pyrimidin-4-yl)-piperazin-1-yl]-ethyl}-cyclohexyl-1,1-dimethyl-urea], the “TI (therapeutic index - catalepsy MED divided by amphetamine hypermotility ED50)” value in the series with male Wistar rats [4] was above 179. In the series on male Wistar rats [4], the “Catalepsy (MED, mg/kg)” value is reported as above 25 mg/kg. Also, the Ki on Alpha-1 receptor was above 1000 nM; in series [1] it was 1 to 3 nM; on D2 receptor, 15 to 50 nM. Besides, the results for the “% inhibition” value in the series on male Wistar rats [2] (Dose 0.025 mg/kg orally), with male Wistar rats [2] (Dose 0.05 mg/kg orally) and with male Wistar rats [2] (Dose 1 mg/kg orally) were 38%, 65% and 31%, respectively. In addition, the ED50 in the series with male Wistar rats [3] is 0.14 mg/kg. For the same compound, the “D2 Sel. (D2/D3 selectivity, i.e., Ki for D2 receptor divided by Ki for D3 receptor)” value on D2 receptor is recorded as 7.
Turning to `Cc1cc2c(s1)Nc1ccccc1N=C2N1CCN(C)CC1` [Olanzapine, reference compound], the “% inhibition” value is given as -12% with male Wistar rats [2] (Dose 1 mg/kg orally) and -49% in the series with male Wistar rats [2] (Dose 3 mg/kg orally). Also, the ED50 in the series on male Wistar rats [3] was found to be 1.8 mg/kg.
Regarding `CCNc1nc(Cl)c(Cl)c(N2CCN(CC[C@H]3CC[C@H](NC(C)=O)CC3)CC2)n1` [Compound 6, trans-N-(4-{2-[4-(5,6-dichloro-2-ethylamino-pyrimidin-4-yl)-piperazin-1-yl]-ethyl}-cyclohexyl)-acetamide], the figures for the Ki (on Alpha-1 receptor; in series [1]; at D2 receptor) were above 1000 nM, 1 to 3 nM and 15 to 50 nM, respectively. Moreover, on D2 receptor, the “D2 Sel. (D2/D3 selectivity, i.e., Ki for D2 receptor divided by Ki for D3 receptor)” value was found to be 23.
